Eight molecules from patent US20260078135A1, “POLYCYCLIC QUINAZOLINES FOR INHIBITION OF ERBB2” (Enliven Inc., priority 2022, published 2026) can be followed below.

By IC50 is commonly meant the concentration that inhibits the measured activity by half. A lower IC50 goes with inhibition by little substance.

In one test the target is Ba/F3 ERBB2 YVMA (Homo sapiens, UniProt P04626, DUP772-775, cells depend on it). Put plainly: Cell viability assay (CellTiter Glo), Ba/F3 cells engineered to express ERBB2 YVMA. The test is classed as cell-based, mouse. To be noted: Ba/F3 cells expressing human ERBB2 YVMA mutant, 72 hours, read-out: Ba/F3 ERBB2 YVMA, IC50. The essentials: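 Ba/F3 cells (IL-3-independent via stable retroviral human ERBB2 YVMA) seeded 3000/well and given compound from about 10 μM to 0.51 nM in three-fold steps, DMSO ≤0.1%, 72 h at 37° C. Viability by CellTiter Glo luminescence, normalized to DMSO and media-only controls. Sigmoidal nonlinear fit.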
On the technique in general: ATP-based viability assays read luminescence as a measure of living cells.

The target of test [1] is T1, phosphorylated ERBB2 (pERBB2) (Homo sapiens, UniProt P04626).
T1 construct: endogenous in cells; host or cells: BT-474
Nature of the test: Detection of phosphorylated ERBB2 (pERBB2) by ELISA in BT-474 cells. Particulars: four hour incubation. Format: cell-based. The essentials: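 BT-474 cells were treated with compounds (fourfold dilutions, 10 μM to 0.01 nM final) for 4 h at 37 °C, then lysed. pERBB2 in lysates was quantified by ELISA with an HRP anti-phosphotyrosine detection antibody and TMB read at 450 nm; % relative activity was normalized to no-cell and 0.1% DMSO controls.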

Test [2] concerns the target T2, phosphorylated EGFR (pEGFR) (Homo sapiens, UniProt P00533).
T2 construct: performed to measure phosphorylated EGFR levels using A431 cells (10% FBS); endogenous in cells; host or cells: A431
Nature of the test: Detection of phosphorylated EGFR (pEGFR) by AlphaLISA in EGF-stimulated A431 cells. Particulars: A431 cells (10% FBS), 4 hours incubation, EGF 30 ng/mL for 10 minutes. Format: cell-based. The method, boiled down:
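pEGFR was quantified by AlphaLISA in lysates of A431 cells (10% FBS) given a 10 min pulse of EGF at 30 ng/mL after 4 h compound exposure at 37 °C. IC50 came from a four-parameter fit of % inhibition between DMSO and staurosporine controls.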

T2 sequence (P00533 25-1210): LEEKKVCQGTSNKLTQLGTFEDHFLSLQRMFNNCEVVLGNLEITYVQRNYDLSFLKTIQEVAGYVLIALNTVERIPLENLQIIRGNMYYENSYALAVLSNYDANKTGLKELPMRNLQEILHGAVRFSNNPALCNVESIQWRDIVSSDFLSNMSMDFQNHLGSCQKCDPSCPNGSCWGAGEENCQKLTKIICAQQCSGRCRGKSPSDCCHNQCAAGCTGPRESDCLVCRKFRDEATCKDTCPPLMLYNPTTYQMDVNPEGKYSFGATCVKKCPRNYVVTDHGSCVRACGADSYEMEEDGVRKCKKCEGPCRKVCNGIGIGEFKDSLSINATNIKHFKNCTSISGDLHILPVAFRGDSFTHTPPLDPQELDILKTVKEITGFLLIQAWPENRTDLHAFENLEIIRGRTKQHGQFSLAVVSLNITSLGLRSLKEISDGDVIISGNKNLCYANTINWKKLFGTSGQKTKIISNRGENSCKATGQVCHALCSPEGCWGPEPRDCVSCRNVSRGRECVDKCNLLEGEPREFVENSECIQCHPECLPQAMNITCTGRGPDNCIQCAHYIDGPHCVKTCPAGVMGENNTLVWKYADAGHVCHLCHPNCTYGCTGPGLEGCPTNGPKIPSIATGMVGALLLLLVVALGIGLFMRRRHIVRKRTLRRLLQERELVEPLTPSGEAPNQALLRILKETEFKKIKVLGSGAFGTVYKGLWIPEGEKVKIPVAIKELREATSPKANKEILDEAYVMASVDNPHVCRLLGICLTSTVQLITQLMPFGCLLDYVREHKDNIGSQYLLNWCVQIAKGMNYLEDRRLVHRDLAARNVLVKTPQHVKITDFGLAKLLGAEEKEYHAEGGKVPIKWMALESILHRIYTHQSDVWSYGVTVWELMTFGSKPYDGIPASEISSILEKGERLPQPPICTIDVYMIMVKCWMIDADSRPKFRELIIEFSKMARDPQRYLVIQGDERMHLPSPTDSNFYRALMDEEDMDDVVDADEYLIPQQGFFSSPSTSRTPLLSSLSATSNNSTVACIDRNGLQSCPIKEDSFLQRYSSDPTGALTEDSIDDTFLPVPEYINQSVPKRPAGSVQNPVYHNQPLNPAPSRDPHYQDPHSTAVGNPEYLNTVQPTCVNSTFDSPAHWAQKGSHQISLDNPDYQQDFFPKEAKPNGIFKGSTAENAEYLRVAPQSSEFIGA
T1 sequence (P04626 23-1255): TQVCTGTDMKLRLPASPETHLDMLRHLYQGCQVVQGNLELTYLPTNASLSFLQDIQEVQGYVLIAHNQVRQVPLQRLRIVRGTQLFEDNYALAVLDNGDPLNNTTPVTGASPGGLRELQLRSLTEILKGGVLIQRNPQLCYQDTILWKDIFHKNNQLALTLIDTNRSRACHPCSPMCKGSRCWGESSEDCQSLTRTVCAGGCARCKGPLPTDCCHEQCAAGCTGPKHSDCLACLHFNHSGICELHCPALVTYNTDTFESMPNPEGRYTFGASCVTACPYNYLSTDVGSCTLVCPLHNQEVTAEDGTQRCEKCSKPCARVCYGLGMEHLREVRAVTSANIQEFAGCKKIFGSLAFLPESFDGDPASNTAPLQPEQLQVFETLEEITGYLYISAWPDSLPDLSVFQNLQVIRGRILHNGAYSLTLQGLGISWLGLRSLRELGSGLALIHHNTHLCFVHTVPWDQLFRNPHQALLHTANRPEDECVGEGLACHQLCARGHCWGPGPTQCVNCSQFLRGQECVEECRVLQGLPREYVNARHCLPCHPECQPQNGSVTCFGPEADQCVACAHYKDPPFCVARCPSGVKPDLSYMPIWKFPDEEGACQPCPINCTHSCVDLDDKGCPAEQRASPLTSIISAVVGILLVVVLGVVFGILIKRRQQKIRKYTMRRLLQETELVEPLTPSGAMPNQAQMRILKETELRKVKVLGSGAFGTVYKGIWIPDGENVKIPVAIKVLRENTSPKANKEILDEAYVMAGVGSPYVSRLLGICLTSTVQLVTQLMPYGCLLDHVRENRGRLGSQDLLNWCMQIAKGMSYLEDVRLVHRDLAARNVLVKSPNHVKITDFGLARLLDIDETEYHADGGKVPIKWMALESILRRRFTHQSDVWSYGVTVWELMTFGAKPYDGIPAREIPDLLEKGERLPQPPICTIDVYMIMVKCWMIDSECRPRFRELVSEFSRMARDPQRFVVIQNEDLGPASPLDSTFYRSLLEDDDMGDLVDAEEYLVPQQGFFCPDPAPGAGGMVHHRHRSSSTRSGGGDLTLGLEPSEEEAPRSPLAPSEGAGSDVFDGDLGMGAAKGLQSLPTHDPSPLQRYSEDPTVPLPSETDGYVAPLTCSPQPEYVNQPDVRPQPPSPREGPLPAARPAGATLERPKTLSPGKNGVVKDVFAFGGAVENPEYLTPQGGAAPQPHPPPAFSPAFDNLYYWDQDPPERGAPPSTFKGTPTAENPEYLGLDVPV
Ba/F3 ERBB2 YVMA, sequence (P04626 with tags, fused parts or gaps DUP772-775): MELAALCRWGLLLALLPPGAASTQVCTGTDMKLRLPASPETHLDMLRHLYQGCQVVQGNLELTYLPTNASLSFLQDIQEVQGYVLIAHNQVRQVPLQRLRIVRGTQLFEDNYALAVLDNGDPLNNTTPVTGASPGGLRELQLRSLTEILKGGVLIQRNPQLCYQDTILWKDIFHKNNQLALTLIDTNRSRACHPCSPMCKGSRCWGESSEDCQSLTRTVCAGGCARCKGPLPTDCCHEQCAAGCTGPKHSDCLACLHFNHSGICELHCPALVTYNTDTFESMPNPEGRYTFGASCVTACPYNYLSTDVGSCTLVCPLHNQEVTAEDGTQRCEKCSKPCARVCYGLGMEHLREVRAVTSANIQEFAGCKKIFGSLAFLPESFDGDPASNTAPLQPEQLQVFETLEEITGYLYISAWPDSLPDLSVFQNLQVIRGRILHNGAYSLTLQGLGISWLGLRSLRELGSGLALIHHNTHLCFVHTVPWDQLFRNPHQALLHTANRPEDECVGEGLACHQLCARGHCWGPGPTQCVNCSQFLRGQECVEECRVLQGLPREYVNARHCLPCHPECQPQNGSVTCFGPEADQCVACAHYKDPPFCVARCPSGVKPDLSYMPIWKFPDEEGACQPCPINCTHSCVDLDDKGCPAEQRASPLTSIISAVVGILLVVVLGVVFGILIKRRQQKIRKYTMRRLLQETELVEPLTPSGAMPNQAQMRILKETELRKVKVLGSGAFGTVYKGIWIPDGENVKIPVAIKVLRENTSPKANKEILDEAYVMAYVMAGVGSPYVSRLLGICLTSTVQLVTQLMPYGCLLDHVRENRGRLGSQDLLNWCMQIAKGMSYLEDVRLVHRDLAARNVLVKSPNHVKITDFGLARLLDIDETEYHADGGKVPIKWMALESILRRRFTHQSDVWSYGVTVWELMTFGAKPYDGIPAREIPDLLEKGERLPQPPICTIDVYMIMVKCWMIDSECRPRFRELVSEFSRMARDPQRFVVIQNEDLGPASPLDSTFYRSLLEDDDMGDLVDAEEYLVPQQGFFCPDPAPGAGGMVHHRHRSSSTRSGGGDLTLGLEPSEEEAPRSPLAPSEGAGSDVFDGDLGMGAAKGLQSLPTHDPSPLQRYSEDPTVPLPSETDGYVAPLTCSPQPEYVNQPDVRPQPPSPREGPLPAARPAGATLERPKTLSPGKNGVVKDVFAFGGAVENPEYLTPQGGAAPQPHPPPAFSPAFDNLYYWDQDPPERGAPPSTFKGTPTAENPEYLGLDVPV

`Cc1cc(Nc2ncnc3cc4c(nc23)N2CCN(C)C[C@H]2CO4)ccc1Oc1cc2ncn(C)c2cn1` [Compound 127, (S)-3-methyl-N-(3-methyl-4-((3-methyl-3H-imidazo[4,5-c]pyridin-6-yl)oxy)phenyl)-1,2,3,4,4a,5-hexahydropyrazino[1,2-d]pyrimido[4′,5′:5,6]pyrido[3,2-b][1,4]oxazin-11-amine]: the GI50 at Ba/F3 ERBB2 YVMA was greater than 0.5 µM. Further, the IC50 in test [1] was 0.828 µM; in test [2], greater than 10 µM.

Consider `Cc1cc(Nc2ncnc3cnc4c(c23)OC[C@H]2CN(C)CCN42)ccc1Oc1cc2ncn(C)c2cn1` [Compound 128, (R)-8-methyl-N-(3-methyl-4-((3-methyl-3H-imidazo[4,5-c]pyridin-6-yl)oxy)phenyl)-6,6a,7,8,9,10-hexahydropyrazino[1,2-d]pyrimido[5′,4′:4,5]pyrido[3,2-b][1,4]oxazin-4-amine], for which the GI50 at Ba/F3 ERBB2 YVMA was found to be 0.211 µM. Also, the IC50 in test [1] is 0.0353 µM; in test [2], greater than 10 µM.

For `Cc1cc(Nc2ncnc3cnc4c(c23)OC[C@H]2CNCCN42)ccc1Oc1ccc2c(c1)ncn2C` [Compound 130, (R)—N-(3-methyl-4-((1-methyl-1H-benzo[d]imidazol-5-yl)oxy)phenyl)-6,6a,7,8,9,10-hexahydropyrazino[1,2-d]pyrimido[5′,4′:4,5]pyrido[3,2-b][1,4]oxazin-4-amine], the GI50 on Ba/F3 ERBB2 YVMA stood at 0.17 µM. Besides, the IC50 was 0.065 µM in test [1] and greater than 10 µM in test [2].

For `Cc1cc(Nc2ncnc3cnc4c(c23)O[C@H]2CCN(C)C[C@H]2N4C)ccc1Oc1ccc2c(c1)ncn2C` [Compound 131, (7aR,11aS)-7,9-dimethyl-N-(3-methyl-4-((1-methyl-1H-benzo[d]imidazol-5-yl)oxy)phenyl)-7a,8,9,10,11,11a-hexahydro-7H-pyrido[4,3-b]pyrimido[5′,4′:4,5]pyrido[2,3-e][1,4]oxazin-1-amine], the GI50 at Ba/F3 ERBB2 YVMA is 0.0871 µM. Moreover, the IC50 in test [1] was 0.0327 µM; in test [2] it was greater than 10 µM.

On to `Cc1cc(Nc2ncnc3cnc4c(c23)O[C@H]2CCNC[C@H]2N4C)ccc1Oc1ccc2c(c1)ncn2C` [Compound 132, (7aR,11aS)-7-methyl-N-(3-methyl-4-((1-methyl-1H-benzo[d]imidazol-5-yl)oxy)phenyl)-7a,8,9,10,11,11a-hexahydro-7H-pyrido[4,3-b]pyrimido[5′,4′:4,5]pyrido[2,3-e][1,4]oxazin-1-amine], for which, on Ba/F3 ERBB2 YVMA, the GI50 is greater than 0.5 µM. The results for the IC50 in test [1] and in test [2] were 0.307 µM and greater than 10 µM, respectively.

Take `Cc1cc(Nc2ncnc3cnc4c(c23)O[C@@H]2CCN(C)C[C@H]2N4C)ccc1Oc1ccc2c(c1)ncn2C` [Compound 133, (7aR,11aR)-7,9-dimethyl-N-(3-methyl-4-((1-methyl-1H-benzo[d]imidazol-5-yl)oxy)phenyl)-7a,8,9,10,11,11a-hexahydro-7H-pyrido[4,3-b]pyrimido[5′,4′:4,5]pyrido[2,3-e][1,4]oxazin-1-amine]: on Ba/F3 ERBB2 YVMA, the GI50 amounted to 0.0601 µM. Further, the results for the IC50 in test [1] and in test [2] were 0.0419 µM and greater than 10 µM, respectively.

For the molecule `Cc1cc(Nc2ncnc3ccc4c(c23)O[C@@H]2CCNC[C@@H]2N4C)ccc1Oc1ccc2c(c1)ncn2C` [Compound 134, (7aS,11aR)-7-methyl-N-(3-methyl-4-((1-methyl-1H-benzo[d]imidazol-5-yl)oxy)phenyl)-7a,8,9,10,11,11a-hexahydro-7H-pyrido[3′,4′:5,6][1,4]oxazino[2,3-f]quinazolin-1-amine], the GI50 on Ba/F3 ERBB2 YVMA is greater than 0.5 µM. Besides, the values for the IC50 in test [1] and in test [2] were 0.113 µM and 0.727 µM, respectively.

With `Cc1cc(Nc2ncnc3cnc4c(c23)O[C@@H]2CCNC[C@H]2N4C)ccc1Oc1ccc2c(c1)ncn2C` [Compound 135, (7aR,11aR)-7-methyl-N-(3-methyl-4-((1-methyl-1H-benzo[d]imidazol-5-yl)oxy)phenyl)-7a,8,9,10,11,11a-hexahydro-7H-pyrido[4,3-b]pyrimido[5′,4′:4,5]pyrido[2,3-e][1,4]oxazin-1-amine], the GI50 on Ba/F3 ERBB2 YVMA came out at 0.0889 µM. The results for the IC50 in test [1] and in test [2] were 0.0561 µM and greater than 10 µM, respectively.
